A short description of data set [1]: Aqueous solubility of compound at pH 7.4. The format is physicochemical.
For data set [2], the system named is Mycobacterium tuberculosis. The format is functional. The conditions noted are these: H37Rv, 168 h, time 7 day.
Another data set concerns CHO. Nature of the data set: Cytotoxicity against CHO cells assessed as reduction in cell viability by MTT assay. The format is cell-based. Particulars: Cricetulus griseus. (Tetrazolium dyes change colour on reduction, which living cells bring about.)
The test system of data set [3] is Mycobacterium tuberculosis. Nature of the data set: Antimycobacterial activity against mmpL3 gene silenced Mycobacterium tuberculosis H37Rv assessed as inhibition of bacterial growth grown under middlebrook 7H9 medium incubated for 7 days by alamar blue broth microdilution method. The format is functional, organism-based. The conditions noted are these: time 7.0 day.

Data set [4] deals with Mycobacterium tuberculosis. Nature of the data set: Antimycobacterial activity against wild-type Mycobacterium tuberculosis H37Rv assessed as inhibition of bacterial growth grown under middlebrook 7H9 medium incubated for 7 days by alamar blue broth microdilution method. It counts as functional. The conditions noted are these: 168 h, time 7 day. Background: Resazurin is reduced to fluorescent resorufin, in cell work by metabolically active cells.

The test system of a further data set is Vero. In words: Cytotoxicity against African green monkey Vero cells assessed as reduction in cell viability by MTT assay. Particulars: Chlorocebus sabaeus. It counts as cell-based.
Data set [5] is described as follows: Metabolic stability in rat liver microsomes assessed as parent compound remaining after 30 mins. It counts as ADME, Microsome. The conditions noted are these: 0.5 h.
The nature of data set [6]: Metabolic stability in human liver microsomes assessed as parent compound remaining after 30 mins. It counts as ADME, Microsome. The conditions noted are these: 0.5 h.
Data set [7] in a line: Kinetic solubility of compound at 200 uM at pH 7.4 measured after 20 hrs by HPLC-DAD analysis. The format is physicochemical. The conditions noted are these: buffer, pH 7.4, 20 h.
The nature of data set [8]: Metabolic stability in mouse liver microsomes assessed as parent compound remaining after 30 mins. It counts as ADME, Microsome. The conditions noted are these: 0.5 h. For orientation: Microsomes from liver hold many membrane-bound enzymes, among them those of drug oxidation.
The nature of data set [9]: Protein binding in human plasma assessed as unbound fraction at 5 uM incubated for 1 hr at 37 degreeC and measured after 4 hrs by ultracentrifugation based LC-MS/MS analysis. The format is ADME, cell-free. The conditions noted are these: 5 h.

We go through 24 molecules from ChEMBL document CHEMBL4706648, “Antitubercular 2-Pyrazolylpyrimidinones: Structure-Activity Relationship and Mode-of-Action Studies” (J Med Chem, 2021).

Converted amounts (≈) assume the structure as drawn. The source made the active and inactive calls. The calls are words filed in the database; no cut-off is given here. Where only a bound is given, the exact number is not on record here.

Consider `Cc1cc(C(=O)N(C)C)nn1-c1nc(-c2ccc(F)cc2)cc(=O)[nH]1`, for which, in data set [1] (buffer), the solubility (as a rule, how much of the substance goes into solution per volume) amounted to 65 µM (≈ 22.2 µg/mL). For the same molecule, the MIC (usually the least concentration at which growth counts as inhibited) in data set [2] was more than 50 µM.
Consider `Cc1nn(-c2nc(C(F)(F)F)cc(=O)[nH]2)c(C)c1Br`, for which the solubility in data set [1] (aqueous, read-out: solubility) was 200 µM (≈ 67.4 µg/mL). Further, the IC50 (as a rule, the concentration that gives 50% inhibition) in the data set with CHO was more than 50 µM. The molecule further had an MIC in data set [2] of 25 µM (≈ 8.43 µg/mL).
With `Cn1ccnc1-c1nc(-c2ccccc2)cc(=O)[nH]1`, the solubility in [1] (aqueous, read-out: solubility) was 200 µM (≈ 50.5 µg/mL). Also, in the data set on CHO, the IC50 was 4 µM. The molecule further gave an MIC in [2] of 20 µM (≈ 5.05 µg/mL).
For `CC(=O)Nc1cc(C)nn1-c1nc(-c2ccccc2)cc(=O)[nH]1`, the solubility in data set [1] (buffer) was determined as 150 µM (≈ 46.4 µg/mL). Further, the outcome in [3] was Active. Also, the MIC in data set [4] came to 27 µM (≈ 8.35 µg/mL); in data set [2], 6 µM (≈ 1.86 µg/mL). Also, the IC50 in the data set with Vero amounted to 35 µM.
Take `Cc1cc(C(=O)O)nn1-c1nc(-c2ccc(F)cc2)cc(=O)[nH]1`: the solubility in data set [1] (buffer) stood at 155 µM (≈ 48.7 µg/mL). In data set [2], this molecule had an MIC of more than 50 µM.
Consider `Cc1cc(C2CC2)n(-c2nc(C(F)(F)F)cc(=O)[nH]2)n1`, for which, in [1] (buffer), the solubility turned out to be 160 µM (≈ 45.5 µg/mL). The IC50 in the data set with CHO was 78 µM. The same molecule registered an MIC in data set [2] of 12 µM (≈ 3.41 µg/mL).
`Cc1cc(C)n(-c2nc(-c3ccc(NS(C)(=O)=O)cc3)cc(=O)[nH]2)n1`: the solubility in data set [1] (buffer) came out at 20 µM (≈ 7.19 µg/mL). The IC50 in the data set with CHO is more than 50 µM. For the same molecule, the MIC in data set [2] was more than 125 µM.
In data set [1] (buffer), `Cc1cc(C)n(-c2nc(-c3ccccc3)c(C)c(=O)[nH]2)n1` displayed a solubility of 120 µM (≈ 33.6 µg/mL). The Stabilty in data set [5] was found to be 54%; in [6], 65%; in data set [8], 45%. Besides, in the data set with CHO, the IC50 was 25 µM. The molecule also registered an MIC in data set [2] of 2 µM (≈ 0.561 µg/mL). The Kinetic_solubility in [7] was determined as 120 µM.
`Cc1cc(NC2CCOCC2)n(-c2nc(C(F)(F)F)cc(=O)[nH]2)n1` returned a solubility in [1] (buffer) of 50 µM (≈ 17.2 µg/mL). The Stabilty is reported as more than 99% in data set [5], more than 99% in data set [6] and 93% in data set [8]. Further, in the data set with CHO, the IC50 came out at 18 µM. Also, the Fu in [9] was 0.014. In data set [2], this molecule registered an MIC of 1.56 µM (≈ 0.536 µg/mL). Also, in [7], the Kinetic_solubility is 50 µM.
In the case of `Cc1cc(Nc2ccc(C(=O)N(C)C)cc2)n(-c2nc(C(F)(F)F)cc(=O)[nH]2)n1`, the solubility in [1] (aqueous, read-out: solubility) was 200 µM (≈ 81.3 µg/mL). The same molecule registered a minimal inhibitory concentration (MIC) in [2] of more than 50 µM.
For `CCOc1cc(C)nn1-c1nc(C(F)(F)F)cc(=O)[nH]1`, in [1] (buffer), the solubility is 120 µM (≈ 34.6 µg/mL). The IC50 with CHO was more than 50 µM. The molecule further registered an MIC in data set [2] of 25 µM (≈ 7.21 µg/mL).
Consider `Cc1cc(C)n(-c2nc(-c3cccnc3)cc(=O)[nH]2)n1`, for which the solubility in data set [1] (aqueous, read-out: solubility) amounted to 200 µM (≈ 53.5 µg/mL). For the same molecule, the IC50 in the data set with CHO was more than 50 µM. Further, the lowest concentration to inhibit growth in data set [2] (MIC) was 50 µM (≈ 13.4 µg/mL).
As to `Cc1cc(C)n(-c2nc3ccccc3c(=O)[nH]2)n1`, the solubility in data set [1] (buffer) is 150 µM (≈ 36 µg/mL). The IC50 in the data set with CHO was found to be 6 µM. In data set [2], this molecule yielded an MIC of 3 µM (≈ 0.721 µg/mL).
Regarding `Cc1cc(C)n(-c2nc(-c3ccc(S(C)(=O)=O)cc3)cc(=O)[nH]2)n1`, the solubility in [1] (buffer) was 8 µM (≈ 2.76 µg/mL). Besides, the IC50 in the data set with CHO is more than 50 µM. For the same molecule, the MIC in data set [2] is more than 50 µM.
On to `COc1cc(-c2ccccc2)nc(-n2nc(C)cc2C)n1`, for which, in data set [1] (aqueous, read-out: solubility), the solubility is 200 µM (≈ 56.1 µg/mL). The IC50 in the data set with CHO is more than 50 µM. Also, in [2], the MIC was more than 50 µM.
Molecule `Cc1cc(Nc2ccc(C#N)cc2)n(-c2nc(C(F)(F)F)cc(=O)[nH]2)n1` gave a solubility in data set [1] (buffer) of 75 µM (≈ 27 µg/mL). Moreover, the IC50 with CHO is 20 µM. Further, the MIC in [2] is 9.4 µM (≈ 3.39 µg/mL).
Consider `Cc1cc(N)n(-c2nc(-c3ccccc3)cc(=O)[nH]2)n1`, for which, in [1] (buffer), the solubility came to 180 µM (≈ 48.1 µg/mL). Moreover, the IC50 with Vero was determined as 9 µM.
For the molecule `Cc1cc(C)n(-c2cc(=O)cc(-c3ccccc3)[nH]2)n1`, the solubility in data set [1] (buffer) stood at 120 µM (≈ 31.8 µg/mL). In addition, in the data set with CHO, the IC50 was more than 50 µM. The molecule further showed an MIC in data set [2] of more than 50 µM.
As for `Cc1cc(C)n(-c2nc(-c3ccc(F)cc3)c(C(N)=O)c(=O)[nH]2)n1`, in data set [1] (buffer), the solubility was 110 µM (≈ 36 µg/mL). The same molecule had an MIC in data set [2] of more than 50 µM.
For the molecule `Cc1cc(Nc2ccc(F)cc2F)n(-c2nc(C(F)(F)F)cc(=O)[nH]2)n1`, in data set [1] (aqueous, read-out: solubility), the solubility is less than 5 µM. Also, the IC50 in the data set with CHO was found to be 8 µM. In addition, in data set [2], 0.3 µM (≈ 0.111 µg/mL) was the least that counted as inhibitory (MIC).
Molecule `Cc1cc(C)n(-c2nc(-c3ccc(F)cc3)c(C#N)c(=O)[nH]2)n1` returned a solubility in data set [1] (buffer) of 30 µM (≈ 9.28 µg/mL). For the same molecule, the IC50 in the data set with CHO was more than 50 µM. Moreover, the MIC in data set [2] is more than 50 µM.
With `Cc1nn(-c2nc(C(F)(F)F)cc(=O)[nH]2)c(C)c1-c1cccnc1`, the solubility in [1] (buffer) came out at 195 µM (≈ 65.4 µg/mL). Moreover, in [2], the MIC is more than 50 µM.
For the molecule `Cc1cc(C)n(-c2nc(C(=O)Nc3ccc(F)cc3)cc(=O)[nH]2)n1`, the solubility in data set [1] (aqueous, read-out: solubility) was found to be 200 µM (≈ 65.5 µg/mL). Besides, the IC50 with CHO was more than 50 µM. The MIC in data set [2] was 25 µM (≈ 8.18 µg/mL).
Molecule `Cc1cc(Nc2ccncc2)n(-c2nc(C(F)(F)F)cc(=O)[nH]2)n1` returned a solubility in data set [1] (buffer) of 20 µM (≈ 6.73 µg/mL). The molecule also came in with a minimum inhibitory concentration (MIC) in data set [2] of more than 50 µM.
